Read-outs that look alike come from different tables or passages of the source.
Assays:
SARS-CoV-2 [1] = format: cell-based; conditions: CaCo-2 cells infected SARS-CoV-2 (MOI 0.1); 0.098-100 μM, 24 h
Calu-3 cells = assay: Cytotoxicity evaluation in Calu-3 cells; format: cell-based, Homo sapiens; conditions: Calu-3, 72 h treatment
Experimental: In a next step, Calu-3 cells were incubated with increasing amounts of ATR-002 over 24, 48 or 72 hours. Specifically, Calu-3 cells were infected with SARS-CoV-2 (FI) using a MOI of 0.01. 1 h.p.i. cells were treated with ATR-002. Mock, SARS-CoV-2 and DMSO served as controls. […] Untreated (SARS-CoV-2) and DMSO (0.1%) treated cells served as negative controls. […] DMSO was used as reference. […] Data in combination with (C) was used to calculate the CC50 value and the selectivity index (SI).

SARS-CoV-2 [2] = assay: SARS-CoV-2 Syrian hamster infection model; conditions: for reduction of progeny virus in throat swabs (TCID50): 100 mg/kg then 75 mg/kg once daily oral; for reduction of progeny virus in throat swabs (TCID50) / reduction of viral load in throat swabs (PCR): day 3 p.i.; for tolerability, weight loss, adverse effects: compared to vehicle
[3] = human, in vivo
Experimental: Specifically, as described previously, in Phase I clinical studies PD-0184264 was administered with a starting dose of 100 mg and up to three escalation steps in seven arms, following a single ascending dose/multiple ascending dose (SAD/MAD) regime. Administration scheme was one dose PD-0184264, escalating 100 mg to 900 mg (SAD), followed by seven doses PD-0184264, escalating 100 mg to 600 mg QD over seven days (MAD).

SARS-CoV-2 (FI) = format: cell-based
SARS-CoV-2 [4] = format: cell-based; conditions: Caco-2, Vero E6, Calu-3; MOI 0.01; 100, 75, 50 μM; 24 h
[5] = tested on: SARS-CoV-2 viral gene RdRP; format: cell-based; conditions: Vero cells, MOI 0.01, 50 μM, 24, 36 and 48 hpi
[6] = tested on: peripheral blood mononuclear cells (PBMC's); assay: T-Cell Inflammation Inhibition Assay (ConA Stimulation); format: cell-based, human; conditions: ATR-002 100, 50, 25 μM, Dexamethasone 100 nM, 24 h
LPS induced PMBC cells = assay: LPS induced cytokine expression in PBMC; format: cell-based, human; conditions: 10 μg/ml
Text: In order to check what concentration of ATR-002 would be necessary for cytokine reduction, the amounts of IP10, TNF-alpha and MCP-1 expression was studied in LPS induced PMBC cells after ATR-002 treatment.

pERK1/2 = assay: Wes analysis of ERK phosphorylation in SARS-CoV-2 infected Caco-2 cells; format: cell-based, Homo sapiens; conditions: CaCo-2 cells infected SARS-CoV-2 (MOI 0.1); 0.098-100 μM, 24 h
Experimental: For the Virus yield reduction assay a 24-well plate (Greiner Bio-One, Cat. 662-160) with 95% confluent Caco-2 cells was prepared. The wells were washed once with Caco-2 infection medium DMEM (Gibco, Cat. 41965-039) supplemented with 5% FCS (Capricorn, Cat. FBS-12A), 1% Penicillin/Streptomycin, (Sigma Aldrich, Cat. P4333) and 1% Non-essential amino acids (NEAA) (Merck, Cat. K 0293). Cells were infected with SARS-CoV-2 (MOI 0.1) for 1 h in 200 μL Caco-2 infection medium per well. Afterwards the Virus inoculum was removed completely and cells were treated with 1 mL per well with different concentrations of ATR-002 (100 μM, 50 μM, 25 μM, 12.5 μM, 6.25 μM, 3.125 μM, 1.56 μM, 0.78 μM, 0.39 μM, 0.195 μM, 0.098 μM, 0 μM) in Caco-2 infection medium with 1% DMSO for 24 h at 37° C., 5% CO2. […]
Wes™ capillary electrophoresis by ProteinSimple® was used to identify and quantify pERK1/2, ERK1/2 and SARS-CoV-2 Nucleoprotein. Cell lysates were diluted with 0.1×Sample Buffer (ProteinSimple, Abingdon, Oxford, UK) to approximately 50 ng total protein per lane and analyzed using specific antibodies. […] The anti-rabbit secondary antibody (ProteinSimple, Cat. DM-001) and anti-mouse secondary antibody (ProteinSimple, Cat. DM-002) and all other reagents for WES analysis were also purchased from ProteinSimple and were ready to use.

[7] = tested on: peripheral blood mononuclear cells (PBMC's); assay: T-cell Inflammation Inhibition Assay (Anti-CD3 Stimulation); format: cell-based, human; conditions: ATR-002 100, 50, 25 μM, Dexamethasone 100 nM, 24 h
[8] = tested on: MxA and IL8 mRNA expression; assay: poly (I:C) stimulation of A549 cells, MxA and IL8 mRNA; conditions: A549, 100 ng/ml poly (I:C), 24 h
[9] = treatment start 4 hours p.i., day 4 p.i.
[10] = treatment start 24 hours p.i., day 4 p.i.

With `O=C(O)c1ccc(F)c(F)c1Nc1ccc(I)cc1Cl` [ATR-002, 2-(2-chloro-4-iodophenylamino)-N-3,4-difluoro benzoic acid] as the molecule, how does the “inhibition of SARS-CoV-2 (virus titer)” value (SARS-CoV-2 [1]) read?
Its value is “seen at concentrations of 50 and 100 μM”.

What about the “inhibition of nucleocapsid protein (viral marker)” value (SARS-CoV-2 [1]) of the same molecule?
The value was “seen at concentrations of 50 and 100 μM”.

What about the “cytotoxicity at antiviral concentrations” value (Calu-3 cells) of the same molecule?
Its value is “non-toxic concentration range”.

What about the “reduction of progeny virus in throat swabs (TCID50)” value (SARS-CoV-2 [2]; treatment start 4 hours p.i.) of the same molecule?
Its value is 1.1 log 10.

What about the “tolerability, weight loss, adverse effects” value (SARS-CoV-2 [2]; treatment start 4 hours p.i.) of the same molecule?
Its value is “well tolerated without significant weight loss”.

What about the “reduction of viral load in throat swabs (PCR)” value (SARS-CoV-2 [2]; treatment start 4 hours p.i.) of the same molecule?
The value was 1.1 log 10.

What about the “affected lung tissue (lung lesions, estimated percentage)” value (SARS-CoV-2 [2]; [9]) of the same molecule?
Its value is “significantly reduced affected lung tissue”.

What about the “reduction in infectious virus titers (TCID50/g tissue) in the nasal turbinates” value (SARS-CoV-2 [2]; [9]) of the same molecule?
The value was 1.3 log 10.

What about the “reduction of viral load in the nasal turbinates (PCR)” value (SARS-CoV-2 [2]; [9]) of the same molecule?
Its value is 1.1 log 10.

And the “reduction of progeny virus in throat swabs (TCID50)” value (SARS-CoV-2 [2]; treatment start 24 hours p.i.)?
The value was 1.3 log 10.

And the “tolerability, weight loss, adverse effects” value (SARS-CoV-2 [2]; treatment start 24 hours p.i.)?
Its value is “well tolerated without significant weight loss”.

What about the “reduction of viral load in throat swabs (PCR)” value (SARS-CoV-2 [2]; treatment start 24 hours p.i.) of the same molecule?
The value was 1.2 log 10.

And the “affected lung tissue (lung lesions, estimated percentage)” value (SARS-CoV-2 [2]; [10])?
The value was “significantly reduced affected lung tissue”.

And the “infectious virus titers in the nasal turbinates” value (SARS-CoV-2 [2]; [10])?
Its value is “not the treatment started 24 hours p.i., significantly reduced infectious virus titers”.

And the pharmacokinetic profile [3]?
The pharmacokinetic profile was “supports the intended once-daily regime”.

What about the “pharmacokinetics exposure, blood levels” value [3] of the same molecule?
Its value is “maintenance of clinically relevant blood levels”.

What about the “safety of each dose cohort (Safety Review Committee)” value [3] of the same molecule?
Its value is “considered to be safe”.

What about the “production of progeny viral particles” value (SARS-CoV-2 (FI); A549-ACE2/TMPRSS2, MOI 0.001, 100 μM) of the same molecule?
The value was “reduced the production of progeny viral particles”.

What about the “production of progeny viral particles” value (SARS-CoV-2 (FI); A549-ACE2/TMPRSS2, MOI 0.01, 100 μM) of the same molecule?
Its value is “did not affect the production of progeny viral particles”.

What about the “production of progeny viral particles” value (SARS-CoV-2 (FI); Calu-3, MOI 0.001, 100 μM) of the same molecule?
The value was “reduced the production of progeny viral particles”.

What about the “virus titer via RT-qPCR, effect across cell types” value (SARS-CoV-2 [4]) of the same molecule?
The value was “effect seen on all cell types was comparable”.

And the “SARS-CoV-2 viral gene RdRP genome copies” value [5]?
Its value is “confirmed”.

And the “inhibition of cytokine/chemokine stimulation (summary)” value [6]?
The value was “significant, dose dependent inhibition”.

And the IP10 expression (LPS induced PMBC cells; LPS induced PBMC)?
Its IP10 expression is “reduced”.

What about the TNF-alpha expression (LPS induced PMBC cells; LPS induced PBMC) of the same molecule?
Its TNF-alpha expression is “reduced”.

What about the inhibition at 10 µg/mL (LPS induced PMBC cells; PBMC, human PBMCs, read-out: inhibition of LPS induced MCP-1) of the same molecule?
The inhibition at 10 µg/mL was greater than 90%.

And the “inhibition of ERK (phosphorylation)” value (pERK1/2)?
The value was “seen at concentrations of 50 and 100 μM”.

And the “inhibition of cytokine/chemokine stimulation (summary)” value [7]?
Its value is “significant, dose dependent inhibition”.

And the “MxA mRNA expression (anti-viral interferon system)” value [8]?
Its value is “constant expression of MxA mRNA”.

And the “IL8 mRNA expression” value ([8]; even low concentrations)?
The value was “strong reduction”.
